From patent publication US20230012172A1, “COMPOSITIONS AND METHODS FOR TREATMENT OF PLATINUM-BASED CHEMOTHERAPEUTIC RESISTANT TUMORS” (The George Washington University, priority 2020, published 2023)
Where a chain is given by its changes, count along the chain named.

Columns and labels:
SKOV3 CR cells = assay: Cell viability assay (SRB) in SKOV3 CR cells; format: cell-based; conditions: SKOV3 CR cells
Description: Cell culture and resistance cell line establishment. IGROV1 cells, U2OS (HTB-96; ATCC), HEK293T (CRL-11268; ATCC) and SKOV3 cells (HTB-77; ATCC) were cultured at 37° C. in DMEM with 10% Fetal Bovine Serum (FBS). PEO1 (10032308; Sigma-Aldrich), PEO4 (10032309; Sigma-Aldrich), PEO14 (10032311; […] Sigma-Aldrich) were cultured at 37° C. in RPMI-1640 with 10% FBS. OV90 (CRL-11732; […] All the cells were cultured at in a humidified incubator with 5% CO2 atmosphere. Cisplatin resistant cell lines, including SKOV3 CR, IGROV1 CR and OV90 CR, were generated using an approach similar to that reported in Zhou et al., (2018) Oncogene 37, 3981-3997, the disclosure of which is incorporated herein in its entirety. Cell viability assay. Cells were seeded at 3,000 cells/well in 96-well plates were treated with drugs, followed by incubation for 48 hours, after which cell viability was detected using Sulforhodamine B (SRB) assay (64). Absorbance at 510 nm was detected using a SpectraMax Reader (Molecular Devices) and analyzed with SoftMax Analysis Software (Molecular Devices). Combinational index (CI) values were calculated using CompuSyn software.

SENP1-C603A = target: T1, SENP1-C603A (Homo sapiens, UniProt Q9P0U3, C603A); assay: In vitro thermal shift assay with mutant SENP1-C603A; format: binding; conditions: purified mutant SENP1-C603A
T1 construct: made in house; host or cells: E. coli implied (pGEX-4T1 vector)
T1 sequence (Q9P0U3 1-644 C603A): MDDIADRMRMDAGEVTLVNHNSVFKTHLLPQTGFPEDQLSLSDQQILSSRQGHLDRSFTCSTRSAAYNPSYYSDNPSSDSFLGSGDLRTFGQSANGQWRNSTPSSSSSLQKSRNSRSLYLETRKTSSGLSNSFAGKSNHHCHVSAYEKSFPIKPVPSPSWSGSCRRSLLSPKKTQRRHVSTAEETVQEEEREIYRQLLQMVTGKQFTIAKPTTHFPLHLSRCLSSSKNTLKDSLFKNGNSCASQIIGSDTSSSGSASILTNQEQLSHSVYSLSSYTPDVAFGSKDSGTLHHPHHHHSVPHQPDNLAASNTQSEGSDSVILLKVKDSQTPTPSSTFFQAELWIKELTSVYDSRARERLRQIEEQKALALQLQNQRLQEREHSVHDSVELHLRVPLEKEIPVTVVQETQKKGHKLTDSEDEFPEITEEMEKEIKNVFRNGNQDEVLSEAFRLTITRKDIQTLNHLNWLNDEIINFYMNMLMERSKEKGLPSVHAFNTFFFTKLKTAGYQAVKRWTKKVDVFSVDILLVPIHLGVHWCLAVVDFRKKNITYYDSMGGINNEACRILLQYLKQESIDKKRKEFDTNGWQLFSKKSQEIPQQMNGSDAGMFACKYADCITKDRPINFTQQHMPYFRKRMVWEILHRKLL

IGROV1 CR cells = assay: Cell viability assay (SRB) in IGROV1 CR cells; format: cell-based, human; conditions: 150 nM UA, IGROV1 CR cells
Description: Cell culture and resistance cell line establishment. IGROV1 cells, U2OS (HTB-96; ATCC), HEK293T (CRL-11268; ATCC) and SKOV3 cells (HTB-77; ATCC) were cultured at 37° C. in DMEM with 10% Fetal Bovine Serum (FBS). PEO1 (10032308; Sigma-Aldrich), PEO4 (10032309; Sigma-Aldrich), PEO14 (10032311; Sigma-Aldrich) and PE023 cells (10032313; Sigma-Aldrich) were cultured at 37° C. in RPMI-1640 with 10% FBS. OV90 (CRL-11732; ATCC) was cultured in medium containing 1:1 MCDB 105 (Sigma) and M199 (Sigma) supplemented with 10% FBS at 37 ° C. All the cells were cultured at in a humidified incubator with 5% CO2 atmosphere. Cisplatin resistant cell lines, including SKOV3 CR, IGROV1 CR and OV90 CR, were generated using an approach similar to that reported in Zhou et al., (2018) Oncogene 37, 3981-3997, the disclosure of which is incorporated herein in its entirety.
Cell viability assay. Cells were seeded at 3,000 cells/well in 96-well plates were treated with drugs, followed by incubation for 48 hours, after which cell viability was detected using Sulforhodamine B (SRB) assay (64). Absorbance at 510 nm was detected using a SpectraMax Reader (Molecular Devices) and analyzed with SoftMax Analysis Software (Molecular Devices). Combinational index (CI) values were calculated using CompuSyn software.

SENP1 = target: T2, SENP1 (Homo sapiens, UniProt Q9P0U3); assay: Cell free thermal shift assay with recombinant SENP1; format: binding; parameters: GST (N); made in house; host or cells: E. coli implied (pGEX-4T1 vector; BL21 (DE3) is stated only for pET28a-JAK2)
T2 sequence (Q9P0U3 1-644): T1 sequence (Q9P0U3 1-644 C603A) with A603C

SMILES: CC1(C)CC[C@]2(C(=O)O)CC[C@]3(C)C(=CC[C@@H]4[C@@]5(C)CC[C@H](O[C@@H]6O[C@H](C(=O)O)[C@@H](O)[C@H](O[C@@H]7OC[C@@H](O)[C@H](O)[C@H]7O)[C@H]6O)C(C)(C)[C@@H]5CC[C@]43C)[C@@H]2C1 [Mc, Momordin Ic]
- re-sensitization to cisplatin (SKOV3 CR cells): re-sensitized
- synergistic effects with cisplatin (combination index) (SKOV3 CR cells): synergy
- thermal stabilization of SENP1-C603A proteins (SENP1-C603A): no longer stabilized

SMILES: C[C@H]1[C@H](C)CC[C@]2(C(=O)O)CC[C@]3(C)C(=CC[C@@H]4[C@@]5(C)CC[C@H](O)C(C)(C)[C@@H]5CC[C@]43C)[C@H]12 [UA, ursolic acid]
- CI value with cisplatin, cell survival (IGROV1 CR cells): < 1
- thermal stabilization of SENP1-C603A proteins (SENP1-C603A): no longer stabilized
- thermal stabilization of recombinant SENP1 proteins (SENP1): stabilized
